What all share (assay): NCI tumour cell line growth inhibition, 48 h
The subject of test [1] is SK-MEL-5 melanoma.
In test [2] the test system is SK-OV-3 ovarian.
Test [3] relates to EKVX NSCLC.
Test [4] concerns NCI-H460 lung.
Test [5] concerns SR leukemia.
Test [6] has as its system A549 NSCLC.
For test [7], the system named is CCRF-CEM leukemia.
The subject of test [8] is HCT-116 colon.
The subject of test [9] is MALME-3M melanoma.
Test [10] concerns IGROV1 ovarian.
Test [11] relates to SF-295 CNS.
The test system of test [12] is MDA-MB-435.
For test [13], the system named is SK-MEL-28 melanoma.
The subject of test [14] is HS 578T breast.
In test [15] the test system is TK-10 renal.
The test system of test [16] is T-47D breast.
The subject of test [17] is HOP-92 NSCLC.
Test [18] relates to NCI-H23 lung.
The subject of test [19] is RXF 393 renal.

We go through 13 compounds from PubChem BioAssay (NCI).

“And” between values parts separate entries of the source, which are not always exact repeats. Identical values can stand only once.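 1) Cells in 96-well plates. 2) Compound, 48 h, 5 concentrations. 3) Linear interpolation between surrounding doses. 4) Unreached endpoint = highest concentration. At the GI50, growth is halved. TGI is the concentration that stops growth completely.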

Regarding `CCCCCCCCCCCCOc1ccc(/C=C/C2=[N+](CCCl)CCO2)cc1`, the TGI in test [1] was above 100 µM; in test [2], above 100 µM; in test [3] it was above 100 µM; in [4], above 100 µM; in test [5] it was 50.9 µM; in test [6], above 100 µM. Besides, the TGI in test [7] was above 100 µM; in test [8], 33.5 µM; in test [9], above 100 µM; in test [10] it was 77.6 µM; in [11], above 100 µM; in test [12] it was above 100 µM. Besides, the TGI in test [13] is above 100 µM; in test [14] it was above 100 µM; in test [15], above 100 µM; in test [16] it was above 100 µM; in [17], 86.5 µM.

As to `CC1(C)C2CC3C4CC5(Nc6ccccc6C5N41)[C@]3(C)CC2=O` (some centres not stated), the TGI in test [1], in [3], in [4], in test [5], in [6] and in [7] was above 50 µM each time. Further, the TGI in test [8], in test [9], in [10], in test [11], in test [12] and in test [13] was above 50 µM each time. The TGI in test [14] is above 50 µM; in [15], above 50 µM; in test [18] it was above 50 µM; in test [19], above 50 µM; in test [16] it was 33.3 µM; in test [17], above 50 µM.

On to `COC(=O)[C@@H](Cc1ccccc1)N1O[C@]12CCCC[C@@H]2NC(=O)OC(C)(C)C` (some centres not stated), for which the TGI in [1] was 35.8 µM; in test [3], 82.3 µM; in [4] it was 90.6 µM; in test [5] it was 74.4 µM; in [6], above 100 µM; in test [7], 35.9 µM. The TGI in test [8] was above 100 µM; in [9], 56 µM; in test [10], 27.8 µM; in test [11], above 100 µM; in [12], 54.5 µM; in test [13], 60.7 µM. Also, the TGI in [14] amounted to 55.8 µM; in test [15], 49 µM; in test [18], 51.8 µM; in test [19], 56.1 µM; in test [16], 62.4 µM; in test [17] it was 55.5 µM.

As to `O=C(O)CN1CCN(CC(=O)N2CCN(C(=O)OCc3ccccc3)CC2)CCN(CC(=O)O)CCN(CC(=O)N2CCN(C(=O)OCc3ccccc3)CC2)CC1`, the TGI in test [1], in [2], in [3], in [4], in test [5] and in test [6] was above 100 µM throughout. In addition, the TGI in [7], in test [8], in test [9], in test [10], in test [11] and in test [12] was above 100 µM throughout. Also, the TGI in test [13], in [14], in [15], in test [16] and in test [17] was above 100 µM in each case.

On to `COc1ccc(N=Nc2c(C)c(C#N)c(=S)n(C3OC(CO)C(O)C(O)C3O)c2C)cc1` (configuration not stated), for which the TGI in [1] was 35.1 µM; in [2], above 100 µM; in test [4], above 100 µM; in test [5], 87.1 µM; in test [6], above 100 µM; in test [7], 89.2 µM. In addition, the TGI in test [8], in test [10], in [11], in [12], in test [13] and in test [14] was above 100 µM in each case. For the same compound, the TGI in test [15] is above 100 µM; in test [18], above 100 µM; in test [19] it was above 100 µM; in test [16], 79.8 µM; in test [17] it was 64.8 µM.

Take `O=C(O)CNn1c(SCC(=O)O)nnc(/C=C/c2c(O)ccc3ccccc23)c1=O`: the TGI in test [1] is 42.8 µM; in [2], above 100 µM; in test [3], 66.2 µM; in test [4], above 100 µM; in test [5] it was 60 µM; in test [6], above 100 µM. The TGI in test [7] is 14.9 µM; in [8], above 100 µM; in test [9] it was above 100 µM; in test [10], 0.962 µM; in test [11] it was above 100 µM; in test [12], above 100 µM. The TGI in test [13] was above 100 µM; in test [14], 94.4 µM; in test [18], 52.6 µM; in [16] it was above 100 µM.

As for `COc1cc([C@@]23OC[C@@H]4[C@@H](OC[C@@H]42)c2cc4c(cc23)OCO4)cc(OC)c1OC`, the TGI in [5] was above 77 µM; in [6] it was above 100 µM; in test [7] it was above 100 µM; in test [8], above 100 µM; in test [9], above 100 µM; in test [10], above 100 µM. Further, the TGI in [11] was above 100 µM; in test [12] it was above 100 µM; in test [13], above 100 µM; in test [14], 10.5 µM; in test [15] it was above 100 µM; in test [18], above 100 µM. Besides, the TGI in test [19] and in test [16] was above 100 µM each time.

`C=C1C(=O)OC2CC(=C)C3CC=C(C)C3CC12` (configuration not stated): the TGI is above 100 µM in [1]; 80 µM in test [2]; above 100 µM in test [3]; above 100 µM in test [4]; 55.6 µM in test [5]; above 100 µM in [6]. The TGI is above 100 µM in [7]; 50.4 µM in test [8]; 55.5 µM in test [10]; above 100 µM in [11]; 32.6 µM in [12]; 77.3 µM in test [13]. Also, the TGI in [14] is above 100 µM; in [15], 34.4 µM; in test [16] it was 37.1 µM; in test [17] it was 28.7 µM.

Turning to `Cc1ccc(/C=C2\CCCC(CN(C)C)C2=O)cc1` (configuration not stated), the TGI in test [1] was 12.5 µM; in [2], 26.4 µM; in test [3] it was 31.5 µM; in test [4], 13.1 µM; in test [6], 30.9 µM; in test [7], above 100 µM. Also, the TGI came out at 3.1 µM in test [8]; 3.77 µM in [9]; 4.15 µM in test [10]; 31.2 µM in test [11]; 3.74 µM in test [12]; 3.9 µM in test [13]. Besides, the TGI in test [14] is above 100 µM; in test [15], 8.26 µM; in test [18], 4.97 µM; in test [19] it was 3.34 µM; in test [16], 3.25 µM; in test [17], 3.75 µM.

With `Oc1ccccc1C1=NOC(c2ccc(C(F)(F)F)cc2)C1` (configuration not stated), the TGI in [1], in [2], in test [3], in test [4], in [6] and in test [7] was above 50 µM throughout. The TGI in [8] was above 50 µM; in test [9] it was above 50 µM; in test [10], above 33.3 µM; in test [11] it was above 50 µM; in test [12], above 50 µM; in [13] it was above 50 µM. Moreover, the TGI in [14] was above 50 µM; in test [15] it was above 16.2 µM; in test [18], above 50 µM; in test [19] it was above 50 µM; in test [16], above 38.1 µM.

As for `CCOC(=O)c1nc2ccccc2nc1Oc1cc(OC)c(OC)c(OC)c1`, the TGI in test [1], in test [3], in test [4], in [5], in test [6] and in test [7] was above 100 µM each time. For the same compound, the TGI in [8], in test [9], in [10], in test [11], in test [12] and in [13] was above 100 µM each time. The TGI in test [14], in test [15], in test [18], in test [16] and in test [17] was above 100 µM throughout.

Take `Cc1nc2ccc(NC3OC(CO)C(O)C(O)C3O)cc2c(=O)n1-c1ccccc1` (configuration not stated): the TGI in test [1], in [3], in [4], in test [5], in test [8] and in test [9] was above 100 µM throughout. Besides, the TGI in test [10], in [11], in [12], in test [13], in test [14] and in test [15] was above 100 µM in each case. Besides, the TGI in [18], in [19] and in [16] was above 100 µM in each case. Further, in test [5], the GI50 is 11.1 µM and > 100 µM.

Take `COC(=O)C1=C(C(=O)OC)SC(=C2S[C@@H]3[C@@H]4C[C@H]([C@@H]3S2)[C@H]2C(=O)OC(=O)[C@@H]42)S1`: the TGI in [1], in [3], in test [6], in [7], in [8] and in test [9] was above 100 µM in each case. Moreover, the TGI in test [10], in test [11], in test [12], in test [13], in test [14] and in test [15] was above 100 µM each time. Moreover, the TGI in [18], in test [19], in test [16] and in [17] was above 100 µM throughout.
